pIC50: −log10 of the molar value.
What was measured:
human HIF-PHD2 = molecular target: T1, human HIF-PHD2 (Homo sapiens, UniProt Q9GZT9); assay: HIF-PHD inhibition assay (fluorescence polarization), human HIF-PHD2; format: biochemical; conditions: 2-oxoglutaric acid 3.33 μmol/L
T1 construct: purchased CrystalGenomics Ltd
Summary of the method: (§1)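 FP readout; enzyme activity = mP post-enzyme − mP pre-enzyme. FAM-labelled probe, ACA spacer.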

Hep3B cells = assay: EPO production assay (ELISA of culture supernatant); format: cell-based; conditions: Homo sapiens, 3 μmol/L test compound, 48 hours, relative to control (0.1% DMSO), read-out: EPO production stimulation rate with 3 μmol/L test compound
Experimental: The stimulatory effect of the compound onEPO production was determined as follows using Hep3B cells.
Cells were seeded on 96 well plates at 40000 cells/well, and the plate was incubated overnight in MEM medium containing 10% fetal bovine serum (FBS) at 37° C. under 5% CO2. The next day, the medium was replaced with MEM containing 0.5% FBS, followed by addition of test compound. The test compound was dissolved in dimethyl sulfoxide and added to the cell so that the final concentration of dimethyl sulfoxide was 0.1%. After incubation for additional 48 hours, the culture supernatant was collected, and EPO contained in the supernatant was determined using ELISA kit (EPO ELISA Kit 11-693-417-001, Roche Co.). The results were expressed as stimulation rate of EPO production (fold), which was calculated as the relative value of the EPO production with 3 μmol/L of the test compound compared to the EPO production without stimulation (control).
Stimulation rate of EPO production (fold)=(EPO production with addition of test compound)/(EPO production of control)

human HIF-PHD3 = molecular target: T2, human HIF-PHD3 (Homo sapiens, UniProt Q9H6Z9); assay: HIF-PHD inhibition assay (fluorescence polarization), human HIF-PHD3; format: biochemical; conditions: 2-oxoglutaric acid 166 μmol/L
T2 construct: purchased CrystalGenomics Ltd
Summary of the method: as §1

T1 sequence (Q9GZT9 2-426 limits assumed): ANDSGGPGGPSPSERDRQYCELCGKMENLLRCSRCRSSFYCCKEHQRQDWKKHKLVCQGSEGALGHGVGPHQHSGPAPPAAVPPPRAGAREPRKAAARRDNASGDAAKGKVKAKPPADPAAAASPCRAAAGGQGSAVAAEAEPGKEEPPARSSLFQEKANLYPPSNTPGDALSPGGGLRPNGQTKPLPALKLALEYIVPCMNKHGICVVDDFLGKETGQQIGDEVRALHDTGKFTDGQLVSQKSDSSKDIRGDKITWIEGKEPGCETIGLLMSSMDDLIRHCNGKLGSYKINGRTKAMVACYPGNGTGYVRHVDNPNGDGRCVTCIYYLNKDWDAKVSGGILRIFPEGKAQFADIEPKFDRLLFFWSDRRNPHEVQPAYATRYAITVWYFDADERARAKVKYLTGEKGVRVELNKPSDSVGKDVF
T2 sequence (Q9H6Z9 whole entry): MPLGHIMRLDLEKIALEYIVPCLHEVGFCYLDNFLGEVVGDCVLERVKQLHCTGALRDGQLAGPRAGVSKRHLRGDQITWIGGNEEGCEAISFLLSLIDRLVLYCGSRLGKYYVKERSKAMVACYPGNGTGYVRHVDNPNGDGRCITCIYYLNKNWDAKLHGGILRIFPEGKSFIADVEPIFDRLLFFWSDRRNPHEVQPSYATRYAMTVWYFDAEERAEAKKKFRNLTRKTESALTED

| SMILES | pIC50 (human HIF-PHD2) | fold induction at 3 µM (Hep3B cells) | pIC50 (human HIF-PHD3) |
| --- | --- | --- | --- |
| O=C(O)c1cnn(-c2nc(O)c3c(cnn3CCCC3CCCCC3)n2)c1 [Example 161] | 7.51 | 3.1 | 6.82 |
| Cc1ccc(C(C(C)C)n2ncc3nc(-n4cc(C(=O)O)cn4)nc(O)c32)cc1 (stereo not drawn) [Example 25] | 7.15 | 2.9 | 5.54 |
| O=C(O)c1cnn(-c2nc(O)c3c(cnn3C[C@H]3CC[C@@H](C(F)(F)F)CC3)n2)c1 [Example 138] | 6.80 | 2.9 | 6.22 |
| O=C(O)c1cnn(-c2nc(O)c3c(cnn3CCCc3ccc4ccccc4c3)n2)c1 [Example 131] | 7.14 | 8.6 | 6.15 |
| COc1ccc(Cn2cc3nc(-n4cc(C(=O)O)cn4)nc(O)c3n2)cc1 [Example 236] | 7.96 | 0.91 | 7.11 |
| O=C(O)c1cnn(-c2nc(O)c3c(cnn3Cc3cccc(-c4ccccc4F)c3)n2)c1 [Example 46] | 7.17 | 3.7 | 7.07 |
| O=C(O)c1cnn(-c2nc(O)c3c(cnn3Cc3ccccc3-c3ccccc3)n2)c1 [Example 38] | 6.82 | 2.9 | 5.74 |
| O=C(O)c1cnn(-c2nc(O)c3c(cnn3CC34CC5CC(CC(C5)C3)C4)n2)c1 [Example 381] | 7.34 | 6.3 | 6.30 |
| O=C(O)c1cnn(-c2nc(O)c3c(n2)c(Cl)nn3Cc2ccc(Br)cc2)c1 [Example 220] | 7.85 | 4 | 6.47 |
| Cc1cc2c(cc1OCCCn1ncc3nc(-n4cc(C(=O)O)cn4)nc(O)c31)CCCC2 [Example 189] | 7.70 | 8.7 | 6.82 |
| O=C(O)c1cnn(-c2nc(O)c3c(cnn3Cc3ccc(-c4ccccc4Cl)cc3)n2)c1 [Example 62] | 7.77 | 12 | 6.85 |
| O=C(O)c1cnn(-c2nc(O)c3c(cnn3CCCCCc3ccccc3)n2)c1 [Example 166] | 7.51 | 8.1 | 6.89 |
| O=C(O)c1cnn(-c2nc(O)c3c(cnn3Cc3cc(F)cc(-c4ccccc4)c3)n2)c1 [Example 50] | 7.29 | 6.3 | 6.49 |
| O=C(O)c1cnn(-c2nc(O)c3c(cnn3CCOc3cccc(C(F)(F)F)c3)n2)c1 [Example 202] | 7.23 | 3.6 | 6.52 |
| O=C(O)c1cnn(-c2nc(O)c3c(cnn3CC3CCC4(CC3)CC4)n2)c1 [Example 378] | 7.64 | 9.6 | 6.54 |
| Cc1nn(CC2CCCCC2)c2c(O)nc(-n3cc(C(=O)O)cn3)nc12 [Example 230] | 7.08 | 2 |  |
| Cc1ccc(C(C)(C)Cn2ncc3nc(-n4cc(C(=O)O)cn4)nc(O)c32)cc1 [Example 119] | 6.62 | 3.7 |  |
| O=C(O)c1cnn(-c2nc3cnn(Cc4ccc(-c5ccccc5)cc4)c3c(=O)[nH]2)c1 [Example 55] |  | 34 | 7.62 |
| O=C(O)c1cnn(-c2nc3cnn(Cc4ccc(-c5ccccc5F)c(F)c4)c3c(=O)[nH]2)c1 [Example 93] |  | 23 | 6.89 |
| C[C@@H](c1ccc(Cl)c(Cl)c1)n1ncc2nc(-n3cc(C(=O)O)cn3)nc(O)c21 [Example 23] |  | 3.2 | 6.66 |
| O=C(O)c1cnn(-c2nc3cn(Cc4ccc(-c5ccccc5)cc4)nc3c(=O)[nH]2)c1 [Example 237] |  | 4.3 | 7.42 |
| C[C@H]1CC[C@@H](n2ncc3nc(-n4cc(C(=O)O)cn4)nc(O)c32)CC1 [Example 385] | 6.89 |  | 6.42 |
| Cc1cc(Cn2ncc3nc(-n4cc(C(=O)O)cn4)nc(O)c32)ccc1-c1ccccc1 [Example 92] | 7.96 |  | 7.30 |
| O=C(O)c1cnn(-c2nc(O)c3c(cnn3[C@H]3CCc4ccccc43)n2)c1 [Example 397] | 7.34 |  | 6.14 |
| CC1CC(n2ncc3nc(-n4cc(C(=O)O)cn4)nc(O)c32)CC(C)(C)C1 (single isomer, unassigned) [Example 410] | 7.38 |  | 6.37 |
| O=C(O)c1cnn(-c2nc3cnn(Cc4ccc(Cl)c(Cl)c4)c3c(=O)[nH]2)c1 [Example 1, 1-[1-(3,4-dichlorobenzyl)-7-hydroxy-1H-pyrazolo[4,3-d]pyrimidin-5-yl]-1H-pyrazole-4-carboxylic acid] |  | 4.6 | 6.80 |
| Cc1ccc(C(C)n2ncc3nc(-n4cc(C(=O)O)cn4)nc(O)c32)cc1Cl (stereo not drawn) [Example 297] | 7.18 |  | 6.18 |

| SMILES | pIC50 (human HIF-PHD2) | fold induction at 3 µM (Hep3B cells) | pIC50 (human HIF-PHD3) |
| --- | --- | --- | --- |
| O=C(O)c1cnn(-c2nc(O)c3c(cnn3C[C@H]3CCN(c4ccc(C(F)(F)F)cc4)C3)n2)c1 [Example 427] | 7.60 |  | 6.51 |
| CC(C)(C)Cn1ncc2nc(-n3cc(C(=O)O)cn3)nc(O)c21 [Example 491] | 7.00 |  | 6.20 |
| O=C(O)c1cnn(-c2nc(O)c3c(cnn3[C@H]3CCN(c4ccc(C(F)(F)F)cc4)C3)n2)c1 [Example 437] | 8.60 |  | 6.74 |
| C[C@H](c1ccc(Cl)c(Cl)c1)n1ncc2nc(-n3cc(C(=O)O)cn3)nc(O)c21 [Example 22] |  | 6.9 | 6.27 |
| O=C(O)c1cnn(-c2nc(O)c3c(cnn3C3CCCCCCC3)n2)c1 [Example 394] | 7.48 |  | 6.38 |
| C[C@@H](c1ccc(F)cc1)n1nc(C2CC2)c2nc(-n3cc(C(=O)O)cn3)nc(O)c21 [Example 457] | 6.96 |  | 6.15 |
| C[C@@H](c1ccc(F)c(Cl)c1)n1nc(C2CC2)c2nc(-n3cc(C(=O)O)cn3)nc(O)c21 [Example 462] | 7.09 |  | 6.00 |
| CC[C@@H](c1ccc(OC(F)(F)F)c(F)c1)n1ncc2nc(-n3cc(C(=O)O)cn3)nc(O)c21 [Example 352] | 7.49 |  | 6.38 |
| CCC1CCCC(n2ncc3nc(-n4cc(C(=O)O)cn4)nc(O)c32)C1 (single isomer, unassigned) [Example 416] | 7.74 |  | 6.28 |
| O=C(O)c1cnn(-c2nc(O)c3c(cnn3C(c3cc(F)cc(F)c3)C3CC3)n2)c1 (stereo not drawn) [Example 372] | 7.35 |  | 6.14 |
| CC[C@@H](c1cccc(Cl)c1)n1ncc2nc(-n3cc(C(=O)O)cn3)nc(O)c21 [Example 343] | 7.04 |  | 6.21 |
| Cc1nn([C@H]2CC[C@H](C)CC2)c2c(O)nc(-n3cc(C(=O)O)cn3)nc12 [Example 483] | 6.96 |  | 5.92 |
| CCC(c1cc(F)cc(F)c1)n1ncc2nc(-n3cc(C(=O)O)cn3)nc(O)c21 (stereo not drawn) [Example 332] | 7.35 |  | 6.26 |
| CC1(C)CCCC1n1ncc2nc(-n3cc(C(=O)O)cn3)nc(O)c21 (stereo not drawn) [Example 417] | 7.15 |  | 5.89 |
| Cn1nc(Cc2ccccc2)c2nc(-n3cc(C(=O)O)cn3)nc(O)c21 [Example 503] | < 6.52 |  | < 5.52 |
| CCC(c1ccc(Cl)cc1F)n1ncc2nc(-n3cc(C(=O)O)cn3)nc(O)c21 (single isomer, unassigned) [Example 351] | 7.62 |  | 6.68 |
| CC(C)c1nn(CC2CCCCC2)c2c(O)nc(-n3cc(C(=O)O)cn3)nc12 [Example 233] | 6.92 |  | 5.55 |
| CCC(c1cc(F)cc(Cl)c1)n1ncc2nc(-n3cc(C(=O)O)cn3)nc(O)c21 (stereo not drawn) [Example 339] | 7.44 |  | 6.43 |
| CC1CC(n2ncc3nc(-n4cc(C(=O)O)cn4)nc(O)c32)CC(C)(C)C1 (stereo not drawn) [Example 407] | 7.43 |  | 6.34 |
| CC(C)(C)Cn1nc(F)c2nc(-n3cc(C(=O)O)cn3)nc(O)c21 [Example 499] | 6.89 |  | 6.12 |
| O=C(O)c1cnn(-c2nc(O)c3c(cnn3C(c3ccc(F)cc3)C3CC3)n2)c1 (stereo not drawn) [Example 366] | 6.92 |  | 6.27 |
| C[C@@H](c1cccc(F)c1)n1nc(C2CC2)c2nc(-n3cc(C(=O)O)cn3)nc(O)c21 [Example 458] | < 6.52 |  | 5.96 |
| CC(c1ccc(Cl)c(C(F)(F)F)c1)n1ncc2nc(-n3cc(C(=O)O)cn3)nc(O)c21 (single isomer, unassigned) [Example 316] | 7.54 |  | 6.33 |
| CCC(c1ccc(F)c(Cl)c1)n1ncc2nc(-n3cc(C(=O)O)cn3)nc(O)c21 (stereo not drawn) [Example 337] | 7.49 |  | 6.38 |
| CC(C)C(c1ccc(F)c(F)c1)n1ncc2nc(-n3cc(C(=O)O)cn3)nc(O)c21 (stereo not drawn) [Example 358] | 7.35 |  | 6.15 |
| Cc1cccc([C@H](C)n2ncc3nc(-n4cc(C(=O)O)cn4)nc(O)c32)c1 [Example 262] | 7.54 |  | 6.44 |
| O=C(O)c1cnn(-c2nc(O)c3c(cnn3CC(F)(F)c3ccc(Cl)cc3)n2)c1 [Example 125] | 6.96 |  | 6.04 |

Reference: US20150239889A1, “PYRAZOLOPYRIMIDINE COMPOUND” (MITSUBISHI TANABE PHARMA CORPORATION, priority 2012, published 2015)
